Data as given in patent publication US20160052955A1, “[…] INHIBITORS FOR TREATING CANCERS” (SLOAN-KETTERING INSTITUTE FOR CANCER RESEARCH, priority 2013, published 2016).
Like-named read-outs stand apart in the source and are kept apart here.

Key:
Format in all cases: biochemical
[1] = target: T1, PRMT1 (10-352) (Homo sapiens, UniProt Q99873); assay: Filter-paper methyltransferase assay, PRMT1; conditions: 100 nm enzyme, substrate RGG, 1.5 h
T1 construct: PRMT1 (10-352)

[2] = target: T2, SMYD3 (Homo sapiens, UniProt Q9H7B4); assay: Filter-paper methyltransferase assay, SMYD3; conditions: substrate MAP3K2 (1-350 aa), 125 nM enzyme, 2 h
T2 sequence (Q9H7B4 1-428): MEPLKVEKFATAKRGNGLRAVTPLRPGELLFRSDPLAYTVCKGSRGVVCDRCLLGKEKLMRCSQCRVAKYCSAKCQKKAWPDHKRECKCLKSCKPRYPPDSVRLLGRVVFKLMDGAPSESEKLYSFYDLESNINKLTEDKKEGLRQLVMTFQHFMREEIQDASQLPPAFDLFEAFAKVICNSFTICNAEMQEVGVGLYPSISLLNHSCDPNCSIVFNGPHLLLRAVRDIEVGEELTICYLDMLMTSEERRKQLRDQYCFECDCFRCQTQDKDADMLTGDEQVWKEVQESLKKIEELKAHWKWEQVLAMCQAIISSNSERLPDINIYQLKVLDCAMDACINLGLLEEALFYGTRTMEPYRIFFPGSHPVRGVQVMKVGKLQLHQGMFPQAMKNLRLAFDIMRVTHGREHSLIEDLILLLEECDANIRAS
Procedure: (§1) Methylation Reaction. The 20 μL methylation reaction was carried out at ambient temperature using two mixtures: A. 10 μl of enzyme mixture in the assay buffer containing 50 mM Hepes (pH=8.0), 0.005% Tween-20, 5 μg/ml BSA and 1 mM TCEP; B. 10 μl of a mixture of […], 0.15 μCi [^3H-Me]-SAM cofactor and 3 μM of the corresponding peptide substrate in the same assay buffer. After A and B were mixed for a designated time period, the reaction mixture was examined with our filter-paper assay.
Filter-paper Assay. This assay relies on Whatman P-81 filter paper, which binds peptides but not SAM. Protein Methyl Transferases (PMTs) transfer ^3H-Me of [^3H-Me]-SAM to peptide substrates and the resultant ^3H-methylated, filter-paper-bound peptide is quantified with a scintillation counter. […] The radioactivity was quantified by a Beckman LS6000IC liquid scintillation counter.
Dose-response Curves and IC50. […] After incubating the reaction mixture for the respective reaction time, the conversion was quantified with the filter paper assay as described above. The inhibition was expressed as the percentage between the high control (no inhibition) and the low control (no enzyme) as follows: Percentage Inhibition=[(high control−reading)/(high control−low control)]×100%. […]

[3] = target: T3, G9a (913-1913) (Homo sapiens, UniProt Q96KQ7); assay: Filter-paper methyltransferase assay, G9a; conditions: substrate H3 (1-21 aa), 20 nM enzyme, 1 h
T3 construct: G9a (913-1913)
T3 sequence (Q96KQ7 913-1193 limits assumed): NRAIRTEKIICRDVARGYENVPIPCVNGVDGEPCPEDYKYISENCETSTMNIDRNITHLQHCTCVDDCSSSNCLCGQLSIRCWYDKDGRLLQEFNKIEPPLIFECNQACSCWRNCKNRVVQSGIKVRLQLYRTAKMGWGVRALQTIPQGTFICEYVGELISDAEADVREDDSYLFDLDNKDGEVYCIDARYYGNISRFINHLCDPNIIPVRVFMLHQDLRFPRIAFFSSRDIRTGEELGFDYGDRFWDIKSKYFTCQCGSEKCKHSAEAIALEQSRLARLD

[4] = target: DOT1L (Homo sapiens, UniProt Q8TEK3); assay: Filter-paper methyltransferase assay, DOT1L; conditions: for IC50: substrate nucleosomes, 50 nM enzyme, 6 h
Sequence of DOT1L (Q8TEK3 whole entry, the tested form may be a part): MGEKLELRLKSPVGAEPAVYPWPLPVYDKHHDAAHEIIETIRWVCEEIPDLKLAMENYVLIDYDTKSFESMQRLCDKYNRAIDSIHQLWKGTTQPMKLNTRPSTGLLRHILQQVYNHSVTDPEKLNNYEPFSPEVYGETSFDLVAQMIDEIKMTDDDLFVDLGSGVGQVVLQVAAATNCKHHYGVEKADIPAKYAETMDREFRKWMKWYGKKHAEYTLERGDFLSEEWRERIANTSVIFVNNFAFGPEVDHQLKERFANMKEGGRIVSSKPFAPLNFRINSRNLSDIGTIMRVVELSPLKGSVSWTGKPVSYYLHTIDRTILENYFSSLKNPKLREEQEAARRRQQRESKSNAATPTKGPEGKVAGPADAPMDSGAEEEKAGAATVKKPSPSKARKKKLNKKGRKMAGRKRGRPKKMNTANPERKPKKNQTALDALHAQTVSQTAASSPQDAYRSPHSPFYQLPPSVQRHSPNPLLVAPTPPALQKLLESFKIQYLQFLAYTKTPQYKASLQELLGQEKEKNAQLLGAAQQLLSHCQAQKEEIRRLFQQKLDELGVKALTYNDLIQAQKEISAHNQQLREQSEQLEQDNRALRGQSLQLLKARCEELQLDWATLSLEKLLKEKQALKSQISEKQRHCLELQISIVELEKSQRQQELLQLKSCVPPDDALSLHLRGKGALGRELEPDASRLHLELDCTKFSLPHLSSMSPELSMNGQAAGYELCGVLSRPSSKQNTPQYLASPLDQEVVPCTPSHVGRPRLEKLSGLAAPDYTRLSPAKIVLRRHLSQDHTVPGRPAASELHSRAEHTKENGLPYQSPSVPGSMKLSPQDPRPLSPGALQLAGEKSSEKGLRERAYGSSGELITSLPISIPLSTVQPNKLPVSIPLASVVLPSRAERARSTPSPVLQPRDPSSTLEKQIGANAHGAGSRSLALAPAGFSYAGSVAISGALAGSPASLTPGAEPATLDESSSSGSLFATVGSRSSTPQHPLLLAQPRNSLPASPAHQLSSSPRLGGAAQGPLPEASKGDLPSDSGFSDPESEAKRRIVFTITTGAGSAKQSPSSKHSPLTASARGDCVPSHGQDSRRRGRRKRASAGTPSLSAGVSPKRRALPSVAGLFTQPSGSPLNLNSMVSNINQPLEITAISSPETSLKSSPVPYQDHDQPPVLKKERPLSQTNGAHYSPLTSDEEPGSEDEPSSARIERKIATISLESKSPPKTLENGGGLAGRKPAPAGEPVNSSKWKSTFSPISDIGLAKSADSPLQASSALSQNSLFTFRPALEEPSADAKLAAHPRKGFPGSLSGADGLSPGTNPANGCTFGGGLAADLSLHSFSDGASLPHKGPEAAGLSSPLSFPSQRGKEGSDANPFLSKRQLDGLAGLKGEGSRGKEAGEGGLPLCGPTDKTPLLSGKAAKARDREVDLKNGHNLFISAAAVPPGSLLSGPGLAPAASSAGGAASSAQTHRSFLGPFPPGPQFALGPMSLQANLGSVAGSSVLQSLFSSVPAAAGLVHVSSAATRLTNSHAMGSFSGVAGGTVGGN

[5] = target: T4, SMYD2 Full-length (Homo sapiens, UniProt Q9NRG4); assay: Filter-paper methyltransferase assay, SMYD2; conditions: substrate p53 (360-393 aa), 50 nM enzyme, 10 h; read-out: IC50 SMYD2-FL
T4 construct: SMYD2 Full-length
T4 sequence (Q9NRG4 whole entry, the tested form may be a part): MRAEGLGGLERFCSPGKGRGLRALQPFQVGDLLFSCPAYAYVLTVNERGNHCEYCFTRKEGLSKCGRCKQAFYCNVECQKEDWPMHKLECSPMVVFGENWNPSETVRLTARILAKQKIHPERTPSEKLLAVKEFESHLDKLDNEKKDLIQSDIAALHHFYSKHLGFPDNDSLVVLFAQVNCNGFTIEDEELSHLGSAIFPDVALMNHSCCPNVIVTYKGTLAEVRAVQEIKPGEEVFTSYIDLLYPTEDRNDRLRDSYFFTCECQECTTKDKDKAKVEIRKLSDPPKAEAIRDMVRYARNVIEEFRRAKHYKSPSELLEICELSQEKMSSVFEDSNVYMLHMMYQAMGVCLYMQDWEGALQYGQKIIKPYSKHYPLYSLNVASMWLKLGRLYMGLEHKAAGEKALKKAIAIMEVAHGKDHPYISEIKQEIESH
Procedure: as §1
(§2) Filter-paper Assay. This assay relies on Whatman P-81 filter paper, which binds peptides but not SAM. Protein Methyl Transferases (PMTs) transfer ^3H-Me of [^3H-Me]-SAM to peptide substrates and the resultant ^3H-methylated, filter-paper-bound peptide is quantified with a scintillation counter. Briefly, 6 μl of the methylation reaction was spotted onto Whatman P-81 phosphocellulose filter paper (1.2×1.2 cm^2) to immobilize the ^3H-labeled peptide. After drying in air for 20 min, the filter paper was immersed into 20 mL of 50 mM Na2CO3/NaHCO3 buffer (pH=9.2), and washed 5 times for 10 min each time. The washed filter paper was then transferred to a 20 ml scintillation vial containing 1 mL of distilled water and 10 mL of Ultima Gold scintillation cocktail or 7 mL scintillation vial containing 0.5 mL od distilled water and 5 mL of scintillation cocktail (PerkinElmer). The radioactivity was quantified by a Beckman LS6000IC liquid scintillation counter.
(§3) Dose-response Curves and IC50. Twice the PMT concentration was incubated for 10 min with varied concentration of inhibitors (0.1-400 μM stocks), into which 10 μl of the PMT peptide substrate and radioactive cofactor (3 μM of the corresponding peptide and 1.5 μM, 0.15 μCi [^3H-Me]-SAM) were added. After incubating the reaction mixture for the respective reaction time, the conversion was quantified with the filter paper assay as described above. The inhibition was expressed as the percentage between the high control (no inhibition) and the low control (no enzyme) as follows: Percentage Inhibition=[(high control−reading)/(high control−low control)]×100%. Each experiment was performed in triplicate. The IC50 values were obtained by fitting inhibition percentage versus inhibitor concentration using GraphPad Prism5 software.

[6] = target: T5, SET7/9 Full-length (Homo sapiens, UniProt Q8WTS6); assay: Filter-paper methyltransferase assay, SET7/9; conditions: substrate H3 (1-21 aa), 150 nM enzyme, 3 h
T5 construct: SET7/9 Full-length
T5 sequence (Q8WTS6 1-366): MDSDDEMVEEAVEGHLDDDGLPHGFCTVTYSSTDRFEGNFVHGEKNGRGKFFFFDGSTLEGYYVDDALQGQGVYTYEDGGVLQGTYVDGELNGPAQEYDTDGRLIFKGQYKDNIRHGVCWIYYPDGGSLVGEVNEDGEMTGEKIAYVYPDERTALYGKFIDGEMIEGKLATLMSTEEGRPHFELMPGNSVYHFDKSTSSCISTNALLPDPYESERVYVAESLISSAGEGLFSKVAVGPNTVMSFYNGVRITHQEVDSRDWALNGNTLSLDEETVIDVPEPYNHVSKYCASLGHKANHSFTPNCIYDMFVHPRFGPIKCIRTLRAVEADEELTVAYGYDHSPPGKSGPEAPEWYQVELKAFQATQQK

[7] = target: T6, CARM1 (19-608) (Homo sapiens, UniProt Q86X55); assay: Filter-paper methyltransferase assay, CARM1
T6 construct: CARM1 (19-608)
T6 sequence (Q86X55 19-608): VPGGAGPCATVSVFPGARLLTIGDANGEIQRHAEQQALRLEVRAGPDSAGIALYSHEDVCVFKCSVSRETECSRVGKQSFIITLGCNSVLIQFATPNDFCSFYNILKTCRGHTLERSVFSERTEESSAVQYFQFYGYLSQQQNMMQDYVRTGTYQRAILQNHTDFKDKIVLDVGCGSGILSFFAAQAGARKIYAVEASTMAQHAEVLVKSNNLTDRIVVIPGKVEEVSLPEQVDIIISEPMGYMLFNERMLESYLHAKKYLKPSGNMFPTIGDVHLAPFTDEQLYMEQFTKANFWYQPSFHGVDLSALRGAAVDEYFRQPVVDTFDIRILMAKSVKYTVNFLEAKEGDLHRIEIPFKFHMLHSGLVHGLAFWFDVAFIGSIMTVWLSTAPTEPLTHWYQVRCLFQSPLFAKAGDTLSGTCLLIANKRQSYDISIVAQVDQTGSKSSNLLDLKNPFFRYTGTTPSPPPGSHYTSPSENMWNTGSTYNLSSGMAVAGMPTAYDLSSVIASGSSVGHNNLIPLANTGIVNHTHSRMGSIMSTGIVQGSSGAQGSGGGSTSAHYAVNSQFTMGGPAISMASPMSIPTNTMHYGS

[8] = target: T7, SET8 (191-352) (Homo sapiens, UniProt Q9NQR1); assay: Filter-paper methyltransferase assay, SET8; conditions: substrate H4 (10-30 aa), 1000 nM enzyme, 8 h
T7 construct: SET8 (191-352)
T7 sequence (Q9NQR1 191-352 isoform Q9NQR1-2): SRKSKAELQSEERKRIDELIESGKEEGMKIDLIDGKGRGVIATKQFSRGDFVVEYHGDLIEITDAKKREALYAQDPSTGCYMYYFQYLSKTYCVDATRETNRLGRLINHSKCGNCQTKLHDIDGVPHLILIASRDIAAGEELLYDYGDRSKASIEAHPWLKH

[9] = target: T8, SUV39H2 (112-410) (Homo sapiens, UniProt Q9H5I1); assay: Filter-paper methyltransferase assay, SUV39H2; conditions: substrate H3 (1-21 aa), 5 nM enzyme, 4 h; read-out: IC50 SUV39H2
T8 construct: SUV39H2 (112-410)
T8 sequence (Q9H5I1 112-410): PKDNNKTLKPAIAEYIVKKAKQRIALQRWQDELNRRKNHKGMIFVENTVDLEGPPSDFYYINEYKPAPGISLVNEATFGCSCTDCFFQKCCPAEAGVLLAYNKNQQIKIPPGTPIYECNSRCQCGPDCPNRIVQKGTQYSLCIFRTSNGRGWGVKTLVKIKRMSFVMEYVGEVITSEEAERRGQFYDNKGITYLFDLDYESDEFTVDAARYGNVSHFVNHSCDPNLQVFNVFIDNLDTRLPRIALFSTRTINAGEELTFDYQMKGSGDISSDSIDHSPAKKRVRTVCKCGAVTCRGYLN

[10] = target: T9, PRMT3 (211-531) (Homo sapiens, UniProt O60678); assay: Filter-paper methyltransferase assay, PRMT3; conditions: substrate RGG, 100 nM enzyme, 3 h; read-out: IC50 PRMT3
T9 construct: PRMT3 (211-531)
T9 sequence (O60678 211-531): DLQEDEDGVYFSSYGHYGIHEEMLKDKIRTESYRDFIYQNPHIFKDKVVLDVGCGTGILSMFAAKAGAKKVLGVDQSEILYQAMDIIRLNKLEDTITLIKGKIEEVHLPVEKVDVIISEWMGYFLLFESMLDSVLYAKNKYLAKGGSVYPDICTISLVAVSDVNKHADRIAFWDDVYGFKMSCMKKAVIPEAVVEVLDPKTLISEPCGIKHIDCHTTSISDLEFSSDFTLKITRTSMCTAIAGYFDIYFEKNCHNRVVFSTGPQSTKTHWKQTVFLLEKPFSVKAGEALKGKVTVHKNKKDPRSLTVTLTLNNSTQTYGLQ

[11] = target: T10, GLP1 (951-1235) (Homo sapiens, UniProt Q9H9B1); assay: Filter-paper methyltransferase assay, GLP1; conditions: substrate H3 (1-21 aa), 10 nM enzyme, 1 h
T10 construct: GLP1 (951-1235)
T10 sequence (Q9H9B1 982-1266): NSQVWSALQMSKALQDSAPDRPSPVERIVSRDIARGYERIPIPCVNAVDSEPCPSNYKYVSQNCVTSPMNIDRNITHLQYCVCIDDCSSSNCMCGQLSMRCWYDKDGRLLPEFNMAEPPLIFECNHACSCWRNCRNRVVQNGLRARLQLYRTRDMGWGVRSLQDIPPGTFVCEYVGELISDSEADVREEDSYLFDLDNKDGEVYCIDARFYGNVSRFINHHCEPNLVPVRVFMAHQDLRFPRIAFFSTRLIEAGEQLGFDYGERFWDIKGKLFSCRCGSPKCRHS
Procedure: as §1, §2, §3

[12] = target: T11, SETD2 (1347-1711) (Homo sapiens, UniProt Q9BYW2); assay: Filter-paper methyltransferase assay, SETD2; conditions: substrate H3 (20-50 aa), 250 nM enzyme, 4 h
T11 construct: SETD2 (1347-1711)
T11 sequence (Q9BYW2 1347-1711): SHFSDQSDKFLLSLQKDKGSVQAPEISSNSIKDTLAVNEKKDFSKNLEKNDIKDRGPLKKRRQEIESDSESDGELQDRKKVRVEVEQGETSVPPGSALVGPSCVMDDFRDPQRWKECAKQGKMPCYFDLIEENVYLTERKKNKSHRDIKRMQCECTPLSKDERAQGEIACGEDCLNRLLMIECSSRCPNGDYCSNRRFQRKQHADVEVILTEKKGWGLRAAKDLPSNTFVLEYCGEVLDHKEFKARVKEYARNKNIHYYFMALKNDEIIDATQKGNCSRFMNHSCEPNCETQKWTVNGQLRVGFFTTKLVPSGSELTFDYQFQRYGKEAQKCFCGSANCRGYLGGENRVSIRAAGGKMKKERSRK

[13] = target: T12, SETDB1Full-length (Homo sapiens, UniProt Q15047); assay: Filter-paper methyltransferase assay, SETDB1; conditions: substrate H3 (1-21 aa), 7.5 nM enzyme, 15 h; read-out: IC50 SETDB1-FL
T12 construct: SETDB1Full-length

[14] = substrate H3 (1-40 aa), 300 nM enzyme, 7 h, read-out: IC50 CARM1

T1 sequence (Q99873 10-352 isoform Q99873-3): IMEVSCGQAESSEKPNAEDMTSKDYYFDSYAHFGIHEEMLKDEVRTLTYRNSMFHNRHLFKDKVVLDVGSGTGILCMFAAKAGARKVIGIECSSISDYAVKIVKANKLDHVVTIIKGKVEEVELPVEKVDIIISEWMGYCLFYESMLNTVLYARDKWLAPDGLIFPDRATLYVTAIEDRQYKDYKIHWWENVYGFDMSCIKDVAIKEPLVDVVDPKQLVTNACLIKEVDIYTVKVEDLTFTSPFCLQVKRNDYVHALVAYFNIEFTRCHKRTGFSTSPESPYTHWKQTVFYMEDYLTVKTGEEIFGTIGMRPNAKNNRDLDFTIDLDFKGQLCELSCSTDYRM

Q: What does the source list for `CC(C)(C)c1ccc(NC(=O)NCCC[C@H](CNCc2ccccc2)C[C@H]2O[C@@H](n3cnc4c(N)ncnc43)[C@@H](O)C2O)cc1` (stereo partly shown) [Example 29]?
A: IC50 [1]: > 100 µM; IC50 [2]: > 100 µM; IC50 [3]: > 100 µM; inhibitory activity to DOT1L (in words) [4]: remarkable inhibitory activity; IC50 [4]: 0.17 µM; IC50 [5]: > 100 µM; IC50 [6]: > 100 µM; inhibitory activity to CARM1 (in words) [7]: remarkable inhibitory activity; IC50 [7, 14]: < 0.2 µM; IC50 [8]: > 100 µM; IC50 [9]: ~10 µM; IC50 [10]: > 50 µM; IC50 [11]: > 100 µM; IC50 [12]: > 100 µM

Q: `Nc1ncnc2c1ncn2[C@@H]1O[C@H](C[C@@H](N)CC[C@H](N)C(=O)O)[C@@H](O)[C@H]1O` [Sinefungin, sinefungin, reference compound] was tested. Which IC50 [4] did it give?
A: The IC50 was 53.4 µM.

Q: What about the IC50 [5] of the same compound?
A: Its IC50 is 0.22 µM.

Q: What about the IC50 [6] of the same compound?
A: Its IC50 is 1.14 µM.

Q: What about the IC50 [7] of the same compound?
A: The IC50 was 0.44 µM.

Q: What about the IC50 [8] of the same compound?
A: The IC50 was over 100 µM.

Q: And the IC50 [9]?
A: Its IC50 is 4.58 µM.

Q: And the IC50 [10]?
A: The IC50 was 28.2 µM.

Q: And the IC50 [11]?
A: The IC50 was 32 µM.

Q: What does the source list for `Nc1ncnc2c1ncn2[C@@H]1O[C@H](C[C@@H](N)CCCNC(=O)Nc2ccccc2)[C@@H](O)[C@H]1O` [Example 26]?
A: IC50 [1]: ~100 µM; IC50 [13]: 55 µM; IC50 [3]: > 100 µM; IC50 [4]: 0.84 µM; IC50 [5]: 61.6 µM; IC50 [7, 14]: 1.9 µM; IC50 [9]: > 100 µM; IC50 [10]: 5.9 µM; IC50 [11]: > 100 µM
